{"source": "patent US10722444B2", "about": "“Stable hydrogel compositions including additives” (Allergan Industrie, SAS, priority 2014, dated 2020)", "key": {"[1]": {"test": "Autoclaving stability of HA-based gel with additive (pH, extrusion force, rheology, appearance)", "format": "physicochemical", "conditions": "for ΔpH / ΔTan δ (1 Hz): gel with additive minus gel without", "procedure": "Stability of a hydrogel composition disclosed herein can be determined by subjecting a hydrogel composition to a heat treatment, such as, e.g., steam sterilization at normal pressure or under pressure (e.g., autoclaving). Preferably the heat treatment is carried out at a temperature of at least about 100° C. for between about one minute and about 15 minutes. Substantial stability of a hydrogel composition disclosed herein can be evaluated 1) by determining the change in the extrusion force (ΔF) of a hydrogel composition disclosed herein after sterilization, where the change in extrusion force less 2N is indicative of a substantially stable hydrogel composition as measured by (the extrusion force of a hydrogel composition with the specified additives) minus (the extrusion force of the a hydrogel composition without the added additives); and/or 2) by determining the change in rheological properties of a hydrogel composition disclosed herein after sterilization, where the change in tan δ 1 Hz of less than 0.1 is indicative of a substantially stable hydrogel composition as measured by Δ Tan δ 1 Hz=(tan δ 1 Hz of gel formulation with additives) minus (tan δ 1 Hz of gel formulation without additives). As such, a substantially stable hydrogel composition disclosed herein retains one or more of the following characteristics after sterilization: homogeneousness, extrusion force, cohesiveness, hyaluronan concentration, agent(s) concentration, osmolarity, pH, or other rheological characteristics such as tan δ.\n(§1) Reminder for stability assessment with extrusion force: ΔF (F gel with additive −F gel without additive)<2N\nReminder for stability assessment with rheology: ΔTan δ (Tan δ 1 Hz gel with additive −Tan δ 1 Hz gel without additive)<0.1\nCaffeic acid, at a concentration of 0.6%,(w/w), was incorporated into a HA-based gel matrix at 24 mg/g containing 5% of uncrosslinked HA. The gel formulated was autoclaved.\nInoveol® CAFA (supplied by Libragen), (INCI name: Aqua (and) Caffeyl Glucoside), a derivative of caffeic acid, at a concentration of 0.5% (w/w) of commercial solution, was incorporated into a HA-based gel matrix containing a viscoelastic portion. The gel formulated was autoclaved.\nThe gel formulated was autoclaved."}, "[2]": {"test": "Long term stability / accelerated aging at 45° C. of HA-based gel with additive", "format": "physicochemical", "conditions": "for ΔpH / ΔTan δ (1 Hz): 0.6% (w/w) caffeic acid gel of Example 1 vs HA-based gel matrix without additives", "procedure": "Long term stability of a hydrogel composition disclosed herein can be determined by subjecting a hydrogel composition to a heat treatment, such as, e.g., storage in an about 45° C. environment for about 60 days. Long term stability of a hydrogel composition disclosed herein can be evaluated 1) by assessing the clarity and color of a hydrogel composition after the 45° C. heat treatment, with a clear and uncolored hydrogel composition being indicative of a substantially stable hydrogel composition; 2) by determining the change in the extrusion force (ΔF) of a hydrogel composition disclosed herein after the 45° C. heat treatment, where the change in extrusion force less 2N is indicative of a substantially stable hydrogel composition as measured by (the extrusion force of a hydrogel composition with the specified additives before and after the 45° C. heat treatment) minus (the extrusion force of the a hydrogel composition without the specified additives before and after the 45° C. heat treatment); and 3) by determining the change in rheological properties of a hydrogel composition disclosed herein after sterilization, where the change in tan δ 1 Hz of less than 0.1 is indicative of a substantially stable hydrogel composition as measured by Δ Tan δ 1 Hz=(tan δ 1 Hz of gel formulation with the specified additives before and after the 45° C. heat treatment) minus (tan δ 1 Hz of gel formulation without the specified additives before and after the 45° C. heat treatment). As such, a long term stability of a hydrogel composition disclosed herein is evaluated by retention of one or more of the following characteristics after the 45° C. heat treatment: clarity (transparency and translucency), homogeneousness, and cohesiveness.\nas §1\nReminder for stability assessment with rheology: ΔTan δ (Tan δ 1 Hz gel with additive −Tan δ 1 Hz gel without additive)<0.1 […]\nThe formulation prepared in Example 3 was subjected to accelerated aging or accelerated degradation in order to test the stability of the gel. […]"}, "[3]": {"conditions": "after autoclaving, 0.6% (w/w) caffeic acid in HA-based gel matrix at 24 mg/g containing 5% uncrosslinked HA"}, "[4]": {"conditions": "before autoclaving, 0.6% (w/w) caffeic acid in HA-based gel matrix at 24 mg/g containing 5% uncrosslinked HA"}, "[5]": {"conditions": "after 30 days at 45° C., 0.6% (w/w) caffeic acid gel of Example 1"}}}
{"compound": "O=C(O)/C=C/c1ccc(O)c(O)c1", "note": "[Caffeic acid]", "values": [{"measurement": "appearance of the gel compared with before autoclaving", "setting": "[1]; [3]", "result": "similar"}, {"measurement": "ΔpH", "setting": "[1]; [3]", "result": 0.55}, {"measurement": "ΔTan δ (1 Hz)", "setting": "[1]; [3]", "result": 0.02}, {"measurement": "extrusion analysis finding", "setting": "[1]; autoclaved gel with 0.6% (w/w) caffeic acid", "result": "beginning of degradation of the uncrosslinked hyaluronic acid"}, {"measurement": "appearance of the gel", "setting": "[1]; [4]", "result": "clear and brown"}, {"measurement": "ΔpH", "setting": "[1]; [4]", "result": 0.18}, {"measurement": "ΔTan δ (1 Hz)", "setting": "[1]; [4]", "result": "−0.003"}, {"measurement": "ΔpH", "setting": "[2]; 10 days at 45° C.", "result": 1.05}, {"measurement": "ΔTan δ (1 Hz)", "setting": "[2]; 10 days at 45° C.", "result": 0.0560}, {"measurement": "ΔpH", "setting": "[2]; 20 days at 45° C.", "result": 0.90}, {"measurement": "ΔTan δ (1 Hz)", "setting": "[2]; 20 days at 45° C.", "result": 0.077}, {"measurement": "ΔpH", "setting": "[2]; 30 days at 45° C.", "result": 1.06}, {"measurement": "ΔTan δ (1 Hz)", "setting": "[2]; 30 days at 45° C.", "result": 0.144}, {"measurement": "colour of the gel", "setting": "[2]; [5]", "result": "dark brown"}, {"measurement": "physical analysis of the gel, finding", "setting": "[2]; [5]", "result": "degradation of the formulation"}]}
